Assay results from BindingDB's records for doi:10.1016/j.ejmech.2012.02.023 (Sun Yat-Sen University, 2012).

Test: Inhibition of TNF-alpha-induced NF-kappaB p65 nuclear translocation in human A549 cells after 2 hrs by fluorescence assay

Compound | IC50
COc1cc(/C=C/C(=O)c2ccc(N)c(-c3ccc(F)cc3)c2)cc(Br)c1O | > 50 µM
COc1ccc(/C=C/C(=O)c2cccc(-c3ccc(F)cc3)c2)cc1OC | > 50 µM
COc1ccc(/C=C/C(=O)c2ccc(N)c(-c3ccc(F)cc3)c2)cc1 | > 50 µM
Nc1ccc(C(=O)/C=C/c2ccc(O)c(F)c2)cc1-c1ccc(F)cc1 | > 50 µM
COc1ccc(/C=C/C(=O)c2cccc(Br)c2)cc1OC | > 50 µM
COc1ccc(/C=C/C(=O)c2cccc(-c3cccc(F)c3)c2)cc1 | > 50 µM
O=C(/C=C/c1cccc(-c2ccc(F)cc2)c1)c1ccc(F)cc1 | > 50 µM
COc1ccc(/C=C/C(=O)c2cccc(Br)c2)cc1 | > 50 µM
O=C(/C=C/c1ccc(Br)cc1)c1cccc(-c2cccc(F)c2)c1 | > 50 µM
COc1ccc(/C=C/C(=O)c2cccc(-c3ccc(F)nc3)c2)cc1O | > 50 µM
COc1ccc(/C=C/C(=O)c2cccc(Br)c2)cc1O | > 50 µM
COc1ccc(/C=C/C(=O)c2ccc(N)c(-c3ccc(F)cc3)c2)cc1OC | > 50 µM
COc1ccc(/C=C/C(=O)c2cccc(-c3ccc(F)cc3)c2)cc1 | > 50 µM

Stronger by IC50, values ahead:

IC50 | Compound
35.3 µM | COc1ccccc1/C=C/C(=O)c1cccc(-c2cccc(F)c2)c1
33.4 µM | COc1ccc(/C=C/C(=O)c2cccc(-c3cccc(F)c3)c2)cc1OC
24.4 µM | O=C(/C=C/c1ccc(Cl)cc1)c1cccc(-c2cccc(F)c2)c1
24.1 µM | COc1cccc(/C=C/C(=O)c2cccc(-c3cccc(F)c3)c2)c1OC
21.3 µM | COc1ccc(-c2cc(C(=O)/C=C/c3ccc(F)cc3)ccc2N)cc1OC
13.7 µM | O=C(/C=C/c1ccccc1Br)c1cccc(-c2cccc(F)c2)c1
12.9 µM | COc1cc(/C=C/C(=O)c2cccc(-c3cccc(F)c3)c2)ccc1O
11.9 µM | COc1ccc(-c2cc(C(=O)/C=C/c3cccc(OC)c3OC)ccc2N)cc1OC
11.6 µM | COc1cc(/C=C/C(=O)c2ccc(N)c(-c3ccc(F)cc3)c2)cc(OC)c1OC
11.2 µM | O=C(/C=C/c1cccc(Br)c1)c1cccc(-c2cccc(F)c2)c1
10.3 µM | COc1ccc(OC)c(/C=C/C(=O)c2ccc(N)c(-c3ccc(F)cc3)c2)c1
9.59 µM | COc1ccc(/C=C/C(=O)c2cccc(-c3cccc(F)c3)c2)cc1O
6.83 µM | COc1cc(/C=C/C(=O)c2ccc(N)c(-c3ccc(F)cc3)c2)ccc1O
3.19 µM | COc1ccc(OC)c(/C=C/C(=O)c2ccc(N)c(-c3ccc(OC)c(OC)c3)c2)c1
1.7 µM | COc1ccc(/C=C/C(=O)c2ccc(N)c(-c3ccc(OC)c(OC)c3)c2)c(OC)c1
